Broadly, the IC50 is the concentration that inhibits the measured activity by half. In general, inhibition refers to how much of the control response was suppressed.

Activity calls are given as the source filed them. The rule behind the calls is not given here. A value given as a limit tells only on which side of the number the result lay.

Consider 28 molecules from ChEMBL document CHEMBL2331442, “Synthesis and structure-activity relationships of N-methyl-5,6,7-trimethoxylindoles as novel antimitotic and vascular disrupting agents” (J Med Chem, 2013).

For series [1], the system named is A549. Nature of the series: Cytotoxicity against human A549 cells after 72 hrs by CCK-8 assay. It counts as functional, cell-based. Conditions: A549, 72 h.
Series [2] deals with A549. Kind of series: Cell cycle arrest in human A549 cells assessed as accumulation at G2/M phase at 0.1 uM after 24 hrs by propidium iodide staining-based FACS flow cytometric analysis (reference value: 8.52%). It counts as functional. (In general: In flow cytometry, cells or beads pass a laser one at a time.)
Series [3] has as its system HUVEC. Kind of series: Antiangiogenic activity in activated HUVECs assessed as inhibition of capillary tube formation at 0.1 uM after 22 hrs by light microscopic analysis. It counts as functional, cell-based. Conditions: Homo sapiens.
Series [4] concerns HUVEC. Kind of series: Antiangiogenic activity in quesicent HUVECs assessed as disruption of preformed capillaries at 1 uM after 4 hrs by light microscopic analysis relative to control. It counts as cell-based. The note with it: human.
Another series deals with Tubulin (Homo sapiens) (UniProt P68371+Q9H4B7+P0DPH7+P68366+Q13509+Q71U36+P04350+Q3ZCM7+P07437+P68363+Q9BQE3+Q6PEY2+Q13885+Q9BVA1+Q9BUF5). Kind of series: Inhibition of tubulin polymerization in human A549 cells at 0.1 uM after 6 hrs by Western blotting analysis. It counts as cell-based. On the technique in general: A western blot detects proteins with antibodies after separation by electrophoresis.

Another series deals with HT-1080. Kind of series: Cytotoxicity against human HT1080 cells after 72 hrs by CCK-8 assay. The note with it: HT-1080, 72 h. In kind it is functional, cell-based. A general note: Formazan colour is commonly taken as a measure of viable cells.
A further series has as its system HepG2. Nature of the series: Cytotoxicity against human HepG2 cells after 72 hrs by CCK-8 assay. It counts as functional, cell-based. The note with it: HepG2, 72 h.
Series [5] relates to HUVEC. Kind of series: Antiproliferative activity against activated HUVECs after 48 hrs by CCK-8 assay. In kind it is functional, cell-based. Conditions: Homo sapiens.
Series [6] concerns A549. Kind of series: Antimitotic activity in human A549 cells assessed as disruption of microtubule organization at 0.1 uM after 16 hrs by DAPI staining-based Zeiss microscopic analysis relative to control. It counts as functional, cell-based.
The test system of a further series is HeLa. Nature of the series: Cytotoxicity against human HeLa cells after 72 hrs by CCK-8 assay. It counts as functional, cell-based.
Series [7] concerns HUVEC. Kind of series: Antiangiogenic activity in quesicent HUVECs assessed as disruption of preformed capillaries at 0.1 uM after 4 hrs by light microscopic analysis (reference value: 11%). In kind it is cell-based. The note with it: human.
Series [8] concerns HUVEC. Kind of series: Antiproliferative activity against quesicent HUVECs after 48 hrs by CCK-8 assay. It counts as cell-based. The note with it: Homo sapiens.
Series [9] has as its system A549. Nature of the series: Cell cycle arrest in human A549 cells assessed as accumulation at S phase at 0.1 uM after 24 hrs by propidium iodide staining-based FACS flow cytometric analysis (reference value: 32.56%). It counts as functional.
Series [10] has as its system A549. Kind of series: Cell cycle arrest in human A549 cells assessed as accumulation at G1 phase at 0.1 uM after 24 hrs by propidium iodide staining-based FACS flow cytometric analysis (reference value: 53.57%). It counts as functional.
Series [11] concerns A549. Nature of the series: Antimitotic activity in human A549 cells assessed as disruption of microtubule organization at 0.05 uM after 16 hrs by DAPI staining-based Zeiss microscopic analysis relative to control. It counts as functional, cell-based.
Series [12] deals with A549. Nature of the series: Antiangiogenic activity in human A549 cells xenografted in BALB/c nu/nu mouse assessed as disruption of tumor vasculature at 100 mg/kg, ip after 16 hrs by Hoechst 33342 staining-based Zeiss microscopic analysis relative to control. In kind it is functional. The note with it: route intraperitoneal.
Series [13] has as its system HUVEC. Nature of the series: Selectivity ratio of IC50 for quesicent HUVECs to IC50 for activated HUVECs. It counts as functional, Homo sapiens.
Series [14] has as its system A549. Nature of the series: Antimitotic activity in human A549 cells assessed as disruption of microtubule organization at 0.01 uM after 16 hrs by DAPI staining-based Zeiss microscopic analysis relative to control. It counts as functional, cell-based.

Take `COc1ccc(C(=O)c2c[nH]c3c(OC)c(OC)c(OC)cc23)cc1I`: in the series with A549 [1], the half-inhibitory concentration (IC50) is greater than 10000 nM.

`COc1ccc(C(=O)n2ccc3cc(OC)c(OC)c(OC)c32)cc1` showed an IC50 with A549 [1] greater than 10000 nM.

With `COc1cc(C(=O)c2c[nH]c3c(OC)c(OC)c(OC)cc23)cc(OC)c1OC`, the IC50 with A549 [1] was greater than 10000 nM.

Turning to `COc1ccc(Cc2cn(C)c3c(OC)c(OC)c(OC)cc23)cc1O`, the Activity with A549 [2] was found to be 80.48%; with HUVEC [4] it was 51%; with HUVEC [7], 10%; in the series on A549 [9], 14.7%; with A549 [10], 3.9%. Further, in the series on HUVEC [3], the inhibition result is “Active”. On Tubulin (Homo sapiens), this molecule came in with an inhibition of 31%. In addition, the IC50 in the series on HT-1080 stood at 42.2 nM; with HepG2 it was 45.5 nM; in the series with A549 [1] it was 71.7 nM; in the series with HUVEC [5] it was 8.9 nM; with HeLa it was 40.7 nM; in the series on HUVEC [8] (read-out: IC50), 6300 nM. In the series on A549 [6], the result was Active.

In turn, `COc1ccc(Cc2c[nH]c3c(OC)c(OC)c(OC)cc23)cc1F` returned a 50% inhibitory concentration (IC50) with A549 [1] of 387 nM.

For the molecule `COc1cc2c(c(OC)c1OC)-c1ccc(OC)c(=O)cc1[C@@H](NC(C)=O)CC2` [COLCHICINE], the inhibition entry in the series on HUVEC [3] was “Active”. The IC50 with HT-1080 is 15.4 nM; in the series on HepG2, 46.7 nM; with HUVEC [5], 8.91 nM; with HeLa, 37.4 nM; in the series on HUVEC [8], 7.6 nM. In addition, in the series with HUVEC [7], the Activity is 56%.

On to `COc1ccc(C(=O)c2cn(C)c3c(OC)c(OC)c(OC)cc23)cc1O`, for which the result in the series on A549 [11] was Active. The Activity is listed as 78.85% with A549 [2]; 68% with A549 [12]; 49% with HUVEC [4]; 13% in the series with HUVEC [7]; 14.34% with A549 [9]; 5.07% with A549 [10]. The inhibition result with HUVEC [3] is “Active”. For the same molecule, at Tubulin (Homo sapiens), the inhibition amounted to 27%. The IC50 in the series on HT-1080 is 26.3 nM; with HepG2 it was 44.5 nM; with A549 [1], 28.3 nM; with HUVEC [5], 25.3 nM; with HeLa, 125 nM; with HUVEC [8] (read-out: IC50), 5240 nM. Moreover, the “Ratio IC50” value with HUVEC [13] was 207.

`COc1ccc(C(=O)c2c[nH]c3c(OC)c(OC)c(OC)cc23)cc1`: the 50% inhibitory concentration (IC50) with A549 [1] is 8290 nM.

`COc1cc(Cc2c[nH]c3c(OC)c(OC)c(OC)cc23)cc(OC)c1OC` gave a concentration for half-maximal inhibition (IC50) in the series with A549 [1] greater than 10000 nM.

In the case of `COc1ccc(Cc2c[nH]c3c(OC)c(OC)c(OC)cc23)cc1O`, the IC50 in the series on HT-1080 was 118 nM; with HepG2, 72.2 nM; with A549 [1], 118 nM; with HUVEC [5], 228 nM; in the series with HeLa it was 149 nM; in the series on HUVEC [8] (read-out: IC50) it was 2450 nM. In the series on HUVEC [13], the “Ratio IC50” value came to 10.8.

`COc1cc2c(C(=O)c3ccc(C)cc3)c[nH]c2c(OC)c1OC`: the IC50 with A549 [1] is greater than 10000 nM.

In the series with A549 [1], `COc1ccccc1C(=O)c1c[nH]c2c(OC)c(OC)c(OC)cc12` had an IC50 greater than 10000 nM.

In the case of `COc1ccc(C(=O)c2c(C)n(C)c3c(OC)c(OC)c(OC)cc23)cc1O`, the IC50 in the series with HT-1080 is 574 nM; with HepG2, 91.6 nM; with A549 [1], 108 nM; in the series with HUVEC [5], 43.7 nM; in the series on HeLa, 632 nM; in the series with HUVEC [8] (read-out: IC50), 161 nM. Besides, in the series on HUVEC [13], the “Ratio IC50” value is on record as 3.68.

As for `COc1ccc(C(=O)c2c[nH]c3c(OC)c(OC)c(OC)cc23)cc1Cl`, the IC50 in the series with A549 [1] is greater than 10000 nM.

Turning to `COc1ccc(C(=O)c2c(C)[nH]c3c(OC)c(OC)c(OC)cc23)cc1O`, the half-maximal inhibitory concentration (IC50) with A549 [1] came to 2620 nM.

On to `COc1ccc(C(=O)c2cn(C(C)=O)c3c(OC)c(OC)c(OC)cc23)cc1`, for which, in the series with A549 [1], half-maximal inhibition (IC50) was put at 5270 nM.

For `COc1ccc(C(=O)c2cn(S(=O)(=O)c3ccccc3)c3c(OC)c(OC)c(OC)cc23)cc1`, in the series on A549 [1], the 50% inhibitory concentration (IC50) was greater than 10000 nM.

In the case of `COc1cccc(C(=O)c2c[nH]c3c(OC)c(OC)c(OC)cc23)c1`, the half-maximal inhibitory concentration (IC50) in the series with A549 [1] is greater than 10000 nM.

Take `COc1ccc(C(=O)c2cn(C)c3c(OC)c(OC)c(OC)cc23)cc1F`: the IC50 is 146 nM in the series on A549 [1], 96.4 nM in the series on HUVEC [5] and 151 nM in the series on HUVEC [8] (read-out: IC50). In the series with HUVEC [13], the “Ratio IC50” value came to 1.56.

`COc1ccc(Cc2cn(C)c3c(OC)c(OC)c(OC)cc23)cc1F` returned an IC50 with A549 [1] of 144 nM.

In the case of `COc1ccc(C(=O)c2cn(C)c3c(OC)c(OC)c(OC)cc23)cc1`, in the series with A549 [1], the concentration for half-maximal inhibition (IC50) came out at 482 nM.

The molecule `COc1ccc(Cn2ccc3cc(OC)c(OC)c(OC)c32)cc1` registered a concentration for half-maximal inhibition (IC50) in the series with A549 [1] of 3090 nM.

In the series with A549 [1], `COc1ccc(Cn2ccc3cc(OC)c(OC)c(OC)c32)cc1O` registered an IC50 of 3190 nM.

As to `COc1ccc(C(=O)c2c[nH]c3c(OC)c(OC)c(OC)cc23)cc1F`, the concentration for half-maximal inhibition (IC50) in the series with A549 [1] was greater than 10000 nM.

In the case of `COc1ccc(C(=O)c2c[nH]c3c(OC)c(OC)c(OC)cc23)cc1O`, the half-maximal inhibitory concentration (IC50) in the series with A549 [1] came out at 166 nM; with HUVEC [5] it was 327 nM; in the series with HUVEC [8] (read-out: IC50) it was 2980 nM. Besides, the “Ratio IC50” value in the series on HUVEC [13] is given as 9.1.

As to `COc1ccc(/C=C\c2cc(OC)c(OC)c(OC)c2)cc1O` [COMBRETASTATIN A4], the Activity in the series on A549 [12] is 72%. Further, the concentration for half-maximal inhibition (IC50) in the series on A549 [1] was found to be 3.64 nM; in the series on HUVEC [5] it was 3.34 nM; with HUVEC [8] (read-out: IC50), 8.9 nM. Besides, the result in the series with A549 [14] was Active. Moreover, the “Ratio IC50” value with HUVEC [13] amounted to 2.66.

Consider `COc1ccc(C(=O)n2ccc3cc(OC)c(OC)c(OC)c32)cc1O`, for which, in the series with A549 [1], the half-inhibitory concentration (IC50) is greater than 10000 nM.

`COc1ccc(Cc2c[nH]c3c(OC)c(OC)c(OC)cc23)cc1`: in the series on A549 [1], it took 2990 nM to reach half-maximal inhibition (IC50).
